Results as given in ChEMBL document CHEMBL1131762, “Synthesis and identification of conformationally constrained selective MMP inhibitors” (Bioorg Med Chem Lett, 1999).

Tests used:
Interstitial collagenase = target: T1, Interstitial collagenase (Homo sapiens, UniProt P03956); test: Inhibition of human recombinant matrix metalloprotease-1 (hMMP-1)
T1 sequence (P03956 whole entry): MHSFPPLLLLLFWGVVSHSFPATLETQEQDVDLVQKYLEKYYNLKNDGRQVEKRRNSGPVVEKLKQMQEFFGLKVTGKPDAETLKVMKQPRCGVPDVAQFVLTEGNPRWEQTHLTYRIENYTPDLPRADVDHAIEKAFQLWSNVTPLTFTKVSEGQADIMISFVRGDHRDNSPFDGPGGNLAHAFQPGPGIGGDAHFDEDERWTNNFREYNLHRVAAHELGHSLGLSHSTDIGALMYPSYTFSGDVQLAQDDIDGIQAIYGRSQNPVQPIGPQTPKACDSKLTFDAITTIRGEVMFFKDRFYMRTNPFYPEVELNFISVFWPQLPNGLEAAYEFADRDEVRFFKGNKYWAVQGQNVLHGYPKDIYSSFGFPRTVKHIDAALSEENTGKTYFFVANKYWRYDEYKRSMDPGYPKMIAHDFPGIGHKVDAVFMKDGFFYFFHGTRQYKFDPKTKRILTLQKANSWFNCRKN

Neutrophil collagenase = Neutrophil collagenase (Homo sapiens, UniProt P22894); test: Inhibition of human recombinant matrix metalloprotease-8 (hMMP-8)
Chain of Neutrophil collagenase (P22894 whole entry): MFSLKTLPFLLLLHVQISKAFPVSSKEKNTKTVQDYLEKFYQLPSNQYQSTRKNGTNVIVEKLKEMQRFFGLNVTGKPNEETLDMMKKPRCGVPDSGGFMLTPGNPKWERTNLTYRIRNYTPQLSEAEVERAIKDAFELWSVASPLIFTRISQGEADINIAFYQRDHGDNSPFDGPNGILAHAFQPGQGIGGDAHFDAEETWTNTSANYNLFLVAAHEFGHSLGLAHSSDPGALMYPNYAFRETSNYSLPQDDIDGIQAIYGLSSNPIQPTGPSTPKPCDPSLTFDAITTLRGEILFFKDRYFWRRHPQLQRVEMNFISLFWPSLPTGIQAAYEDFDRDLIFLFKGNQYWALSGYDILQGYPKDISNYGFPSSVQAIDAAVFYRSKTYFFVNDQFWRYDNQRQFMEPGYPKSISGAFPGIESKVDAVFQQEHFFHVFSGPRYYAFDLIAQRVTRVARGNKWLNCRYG

Collagenase 3 = Collagenase 3 (Homo sapiens, UniProt P45452); test: Inhibition of human recombinant matrix metalloprotease-13 (hMMP-13)

## COc1ccc(S(=O)(=O)C2CCCC(S)C2)cc1 (centres undefined)
Interstitial collagenase
  IC50: 1000 nM
Neutrophil collagenase
  IC50: 585 nM

## O=S(=O)(c1ccc(Sc2ccccc2)cc1)C1CCCC(S)C1 (centres undefined)
Interstitial collagenase
  IC50: > 10000 nM
Neutrophil collagenase
  IC50: 50 nM

## O=S(=O)(c1ccc(Oc2ccccc2)cc1)C1CCCC(S)C1 (centres undefined)
Interstitial collagenase
  IC50: 1700 nM
Collagenase 3
  IC50: 1 nM
Neutrophil collagenase
  IC50: 8 nM

## COc1ccc(S(=O)(=O)C2CCC(S)C2)cc1 (centres undefined)
Interstitial collagenase
  IC50: > 10000 nM

## COc1ccc(S(=O)(=O)CCCS)cc1
Neutrophil collagenase
  IC50: 1100 nM
